Results reported in PubChem BioAssay AID2060484 (Molecular Pharmacology Branch, DTP, NCI, 2025).

Test system: SUM149PT spheroids with HUVEC/MSC, viability
Assay: Anticancer human tumor SUM149PT cell line growth inhibition [GQUAD];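 note: spheroids exposed to drugs for seven days before readout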;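 for viability, T/C: percent viability relative to DMSO vehicle control taken as 100%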
Details: for IC50: curve of first compound; for viability, T/C: stronger effect = lower value
Procedure, shortened: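 Tumor cells were grown as complex spheroids with HUVEC endothelial cells and mesenchymal stem cells as stroma. G-quadruplex stabilizers were combined with targeted agents over half-log dilutions from near the clinical Cmax, or from 10 microM.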

[1] = second compound 0.0316 µM, first compound 0.0316 µM
[2] = second compound 0.0316 µM, first compound 0.1 µM
[3] = second compound 0.0316 µM, first compound 0.316 µM
[4] = second compound 0.0316 µM, first compound 1 µM
[5] = second compound 0.0316 µM, first compound 3.16 µM
[6] = second compound 0.0316 µM, first compound 10 µM
[7] = second compound 0.1 µM, first compound 0.0316 µM
[8] = second compound 0.1 µM, first compound 0.1 µM
[9] = second compound 0.1 µM, first compound 0.316 µM
[10] = second compound 0.1 µM, first compound 1 µM
[11] = second compound 0.1 µM, first compound 3.16 µM
[12] = second compound 0.1 µM, first compound 10 µM
[13] = second compound 0.316 µM, first compound 0.0316 µM
[14] = second compound 0.316 µM, first compound 0.1 µM
[15] = second compound 0.316 µM, first compound 0.316 µM
[16] = second compound 0.316 µM, first compound 1 µM
[17] = second compound 0.316 µM, first compound 3.16 µM
[18] = second compound 0.316 µM, first compound 10 µM
[19] = second compound 1 µM, first compound 0.0316 µM
[20] = second compound 1 µM, first compound 0.1 µM
[21] = second compound 1 µM, first compound 0.316 µM
[22] = second compound 1 µM, first compound 1 µM
[23] = second compound 1 µM, first compound 3.16 µM
[24] = second compound 1 µM, first compound 10 µM
[25] = second compound 3.16 µM, first compound 0.0316 µM
[26] = second compound 3.16 µM, first compound 0.1 µM
[27] = second compound 3.16 µM, first compound 0.316 µM
[28] = second compound 3.16 µM, first compound 1 µM
[29] = second compound 3.16 µM, first compound 3.16 µM
[30] = second compound 3.16 µM, first compound 10 µM
[31] = second compound 10 µM, first compound 0.0316 µM
[32] = second compound 10 µM, first compound 0.1 µM
[33] = second compound 10 µM, first compound 0.316 µM
[34] = second compound 10 µM, first compound 1 µM
[35] = second compound 10 µM, first compound 3.16 µM
[36] = second compound 10 µM, first compound 10 µM

Work on `Cc1cccc(N(C)C(=O)C2C(O)CCN2c2nc(C)cc(C(F)(F)F)c2C#N)c1` (stereo not drawn) + Cc1cnc(CNC(=O)c2c(=O)c3ccc(N4CCCN(C)CC4)nc3n3c2sc2ccccc23)cn1 yielded an IC50 (second compound 0.0316 µM) greater than 10000 nM, an IC50 (second compound 0.1 µM) greater than 10000 nM and an IC50 (second compound 0.316 µM) greater than 10000 nM. It also gave an IC50 (second compound 1 µM) of less than 31.6 nM, an IC50 (second compound 3.16 µM) of less than 31.6 nM and an IC50 (second compound 10 µM) of less than 31.6 nM. It also gave a viability, T/C [1] of 104%, a viability, T/C [2] of 86.5% and a viability, T/C [3] of 85%. The viability, T/C [4] was 88.9%, the viability, T/C [5] was 88% and the viability, T/C [6] was 95.4%. It also gave a viability, T/C [7] of 63.1%, a viability, T/C [8] of 61.9% and a viability, T/C [9] of 78.3%. It also gave a viability, T/C [10] of 64.9%, a viability, T/C [11] of 75.6% and a viability, T/C [12] of 66.5%. It also gave a viability, T/C [13] of 61%, a viability, T/C [14] of 62.7% and a viability, T/C [15] of 57.4%. It also gave a viability, T/C [16] of 58.6%, a viability, T/C [17] of 59.5% and a viability, T/C [18] of 61.3%. For the same molecule, the viability, T/C [19] was 45.5%, the viability, T/C [20] was 47.5% and the viability, T/C [21] was 48.6%. The viability, T/C [22] was 45.4%, the viability, T/C [23] was 49.6% and the viability, T/C [24] was 49.4%. It also gave a viability, T/C [25] of 39.2%, a viability, T/C [26] of 41.1% and a viability, T/C [27] of 41.8%. For the same molecule, the viability, T/C [28] was 42.5%, the viability, T/C [29] was 41.2% and the viability, T/C [30] was 46.9%. For the same molecule, the viability, T/C [31] was 11%, the viability, T/C [32] was 11.9% and the viability, T/C [33] was 33.3%. It also gave a viability, T/C [34] of 30.9%, a viability, T/C [35] of 25% and a viability, T/C [36] of 0.29%.
`Cn1ncnc1[C@H]1c2n[nH]c(=O)c3cc(F)cc(c23)N[C@@H]1c1ccc(F)cc1` + Cc1cnc(CNC(=O)c2c(=O)c3ccc(N4CCCN(C)CC4)nc3n3c2sc2ccccc23)cn1 was tested, and the IC50 (second compound 0.0316 µM) was 145 nM, the IC50 (second compound 0.1 µM) was 28.6 nM and the IC50 (second compound 0.316 µM) was 5.8 nM. For the same molecule, the IC50 (second compound 1 µM) was less than 0.999 nM, the IC50 (second compound 3.16 µM) was less than 0.999 nM and the IC50 (second compound 10 µM) was less than 0.999 nM. The viability, T/C (second compound 0.0316 µM, first compound 0.000999 µM) was 92.1%, the viability, T/C (second compound 0.0316 µM, first compound 0.00316 µM) was 68.9% and the viability, T/C (second compound 0.0316 µM, first compound 0.00999 µM) was 77.1%. For the same molecule, the viability, T/C [1] was 68.2%, the viability, T/C (second compound 0.0316 µM, first compound 0.0999 µM) was 50.4% and the viability, T/C [3] was 42.5%. The viability, T/C (second compound 0.1 µM, first compound 0.000999 µM) was 71.2%, the viability, T/C (second compound 0.1 µM, first compound 0.00316 µM) was 63% and the viability, T/C (second compound 0.1 µM, first compound 0.00999 µM) was 53.7%. It also gave a viability, T/C [7] of 52.2%, a viability, T/C (second compound 0.1 µM, first compound 0.0999 µM) of 43.2% and a viability, T/C [9] of 40.8%. For the same molecule, the viability, T/C (second compound 0.316 µM, first compound 0.000999 µM) was 53.9%, the viability, T/C (second compound 0.316 µM, first compound 0.00316 µM) was 53.4% and the viability, T/C (second compound 0.316 µM, first compound 0.00999 µM) was 48.7%. The viability, T/C [13] was 45.4%, the viability, T/C (second compound 0.316 µM, first compound 0.0999 µM) was 41.1% and the viability, T/C [15] was 41.6%. For the same molecule, the viability, T/C (second compound 1 µM, first compound 0.000999 µM) was 47.8%, the viability, T/C (second compound 1 µM, first compound 0.00316 µM) was 48.8% and the viability, T/C (second compound 1 µM, first compound 0.00999 µM) was 38.5%. It also gave a viability, T/C [19] of 41.1%, a viability, T/C (second compound 1 µM, first compound 0.0999 µM) of 38.5% and a viability, T/C [21] of 34.2%. For the same molecule, the viability, T/C (second compound 3.16 µM, first compound 0.000999 µM) was 38.5%, the viability, T/C (second compound 3.16 µM, first compound 0.00316 µM) was 39.5% and the viability, T/C (second compound 3.16 µM, first compound 0.00999 µM) was 34.4%. It also gave a viability, T/C [25] of 34.6%, a viability, T/C (second compound 3.16 µM, first compound 0.0999 µM) of 35.3% and a viability, T/C [27] of 33.4%. For the same molecule, the viability, T/C (second compound 10 µM, first compound 0.000999 µM) was 10.1%, the viability, T/C (second compound 10 µM, first compound 0.00316 µM) was 9.37% and the viability, T/C (second compound 10 µM, first compound 0.00999 µM) was 33.9%. For the same molecule, the viability, T/C [31] was 28.9%, the viability, T/C (second compound 10 µM, first compound 0.0999 µM) was 9.31% and the viability, T/C [33] was 0.26%.
Work on `Nc1ccn(C2OC(CO)C(O)C2(F)F)c(=O)n1` (stereo not drawn) + Cc1cnc(CNC(=O)c2c(=O)c3ccc(N4CCCN(C)CC4)nc3n3c2sc2ccccc23)cn1 yielded an IC50 (second compound 0.0316 µM) of 49.4 nM, an IC50 (second compound 0.1 µM) of less than 31.6 nM and an IC50 (second compound 0.316 µM) of less than 31.6 nM. It also gave an IC50 (second compound 1 µM) of less than 31.6 nM, an IC50 (second compound 3.16 µM) of less than 31.6 nM and an IC50 (second compound 10 µM) of less than 31.6 nM. The viability, T/C [1] was 62.7%, the viability, T/C [2] was 29.1% and the viability, T/C [3] was 22.4%. For the same molecule, the viability, T/C [4] was 17.9%, the viability, T/C [5] was 17.5% and the viability, T/C [6] was 12.2%. The viability, T/C [7] was 50%, the viability, T/C [8] was 31.6% and the viability, T/C [9] was 24.5%. It also gave a viability, T/C [10] of 18.6%, a viability, T/C [11] of 16.1% and a viability, T/C [12] of 14.5%. It also gave a viability, T/C [13] of 45.5%, a viability, T/C [14] of 29.5% and a viability, T/C [15] of 21.3%. For the same molecule, the viability, T/C [16] was 17.3%, the viability, T/C [17] was 17.8% and the viability, T/C [18] was 14%. For the same molecule, the viability, T/C [19] was 40.4%, the viability, T/C [20] was 28.7% and the viability, T/C [21] was 20.1%. It also gave a viability, T/C [22] of 17.2%, a viability, T/C [23] of 14.6% and a viability, T/C [24] of 14.3%. For the same molecule, the viability, T/C [25] was 34.8%, the viability, T/C [26] was 27.1% and the viability, T/C [27] was 19.8%. It also gave a viability, T/C [28] of 17.1%, a viability, T/C [29] of 17.8% and a viability, T/C [30] of 14.5%. The viability, T/C [31] was 8.05%, the viability, T/C [32] was 9.51% and the viability, T/C [33] was 2.05%. For the same molecule, the viability, T/C [34] was 0.66%, the viability, T/C [35] was 1.03% and the viability, T/C [36] was 2.03%.
Work on `O=c1[nH]cc(F)c(=O)[nH]1` + Cc1cnc(CNC(=O)c2c(=O)c3ccc(N4CCCN(C)CC4)nc3n3c2sc2ccccc23)cn1 yielded an IC50 (second compound 0.0316 µM) of 2630 nM, an IC50 (second compound 0.1 µM) of 2120 nM and an IC50 (second compound 0.316 µM) of 1500 nM. It also gave an IC50 (second compound 1 µM) of less than 31.6 nM, an IC50 (second compound 3.16 µM) of less than 31.6 nM and an IC50 (second compound 10 µM) of less than 31.6 nM. The viability, T/C [1] was 86.5%, the viability, T/C [2] was 86.4% and the viability, T/C [3] was 99.3%. The viability, T/C [4] was 75.6%, the viability, T/C [5] was 46.1% and the viability, T/C [6] was 34.8%. The viability, T/C [7] was 73.6%, the viability, T/C [8] was 64% and the viability, T/C [9] was 82.7%. It also gave a viability, T/C [10] of 67.2%, a viability, T/C [11] of 40.8% and a viability, T/C [12] of 32%. For the same molecule, the viability, T/C [13] was 51.1%, the viability, T/C [14] was 61.2% and the viability, T/C [15] was 55%. For the same molecule, the viability, T/C [16] was 55.2%, the viability, T/C [17] was 40.5% and the viability, T/C [18] was 31.2%. It also gave a viability, T/C [19] of 43.4%, a viability, T/C [20] of 43.5% and a viability, T/C [21] of 51.5%. For the same molecule, the viability, T/C [22] was 40.9%, the viability, T/C [23] was 35.8% and the viability, T/C [24] was 29.4%. For the same molecule, the viability, T/C [25] was 38.2%, the viability, T/C [26] was 36.2% and the viability, T/C [27] was 38.7%. The viability, T/C [28] was 36.5%, the viability, T/C [29] was 36% and the viability, T/C [30] was 30.3%. The viability, T/C [31] was 18.6%, the viability, T/C [32] was 9.86% and the viability, T/C [33] was 31.9%. For the same molecule, the viability, T/C [34] was 31.5%, the viability, T/C [35] was 11% and the viability, T/C [36] was 2.12%.
